Test results reported in PMC5967867, “An NMDAR positive and negative allosteric modulator series share a binding site and are interconverted by methyl groups” (eLife, 2018).
Where two headings read alike, the source gives them in different places. Marks after values point to notes of the source that are not given here.

Tests used:
GluN1/GluN2C NMDARs = GluN1/GluN2C NMDARs (Rattus norvegicus, UniProt P35439+Q00961); assay: Two-electrode voltage-clamp recordings, Xenopus laevis oocytes expressing GluN1/GluN2C; type: cell-based; conditions: for Modulation by 10 µM (% of control): 10 µM modulator; for Emax: read-out: Maximal Degree of Modulation (% of control)
Protocol: (§1) cDNAs for rat wild type NMDAR subunits GluN1-1a (GenBank U11418, U08261; hereafter GluN1 or GluN1a), GluN1-1b (U08263, hereafter GluN1b), GluN2A (D13211), GluN2B (U11419), GluN2C (M91563), and GluN2D (L31611, modified as described in [Monyer et al., 1994]) were provided by Drs. S. Heinemann (Salk Institute), S. Nakanishi (Kyoto University), and P. Seeburg (University of Heidelberg). Site-directed mutagenesis was conducted using the QuikChange kit (Agilent Technologies, Santa Clara, CA) following the recommended protocol. DNA sequencing was used to verify all mutations. The amino acid numbering system started with the initiating methionine as residue number one. For expression in Xenopus laevis oocytes, cDNA constructs were linearized by restriction enzymes, and subsequently used to synthesize in vitro cRNAs following the manufacturer’s protocol (mMessage mMachine, Ambion, ThermoFisher Scientific, Waltham, MA).
Xenopus laevis stage VI oocytes (Ecocyte Biosciences, Austin, TX) were injected as previously described ([Hansen et al., 2013]) 2–7 days prior to recording with cRNA encoding the NMDAR subunits and stored at 15°C in media containing (in mM) 88 NaCl, 2.4 NaHCO3, 1 KCl, 0.33 Ca(NO3)2, 0.41 CaCl2, 0.82 MgSO4, 5 Tris-HCl; pH was adjusted to 7.4 with NaOH and the solution supplemented with 1 U/mL penicillin, 0.1 mg/mL gentamicin sulfate, and 1 μg/mL streptomycin. Two-electrode voltage-clamp recordings were performed at room temperature (21–23°C) using different internal solutions for voltage and current electrodes (0.3 M and 3.0 M KCl, respectively). All extracellular solutions were made from a solution containing (in mM) 90 NaCl, 1 KCl, 10 HEPES, 0.5 BaCl2, 0.01 EDTA (pH 7.4 with NaOH). Experiments were performed using an eight port Modular Valve Positioner (Hamilton Company, Reno, NV) and controlled by custom software (Easy Oocyte, Emory University, Atlanta, GA)to exchange solutions. Oocyte currents were recorded at a holding potential of −40 mV using a two-electrode voltage-clamp amplifier (OC-725B or OC-725C, Warner Instruments, Hamden, CT). […] In MTSEA experiments, fresh MTSEA solutions (0.2 mM) were prepared and utilized in less than 30 min to limit compound degradation.
Measurements are given as mean ± SEM unless otherwise indicated. The number of replicate experiments used was chosen to ensure a power level of at least 0.80 when α = 0.05 and when detecting appropriate effect sizes. EC50 and IC50 values and confidence intervals reported were calculated by averaging the log(EC50) or log(IC50) value, determining confidence intervals for mean log(EC50) or log(IC50), and converting back to units of molarity. Statistical significance evaluations (α set to 0.05) were performed using a one-way ANOVA with Dunnett’s multiple comparison test, a paired t–test, or other appropriate tests as described.

[1] = Racemization time course of enantiomers in working solution (functional assessment); type: physicochemical; conditions: standard experimental (aqueous working) solution
Excerpt: The enantiomers of EU1794-27 were separated to determine whether the racemic activity reflected the actions of only one enantiomer (see Supplemental methods). (-)-EU1794-27 potentiated NMDAR responses similarly to the racemic mixture (Figure 8—figure supplement 1A, Table 7). […] We previously reported ([Katzman et al., 2015]) that purified enantiomers were likely to racemize in aqueous solutions, which should proceed by a first-order reaction dependent on multiple factors such as ionic strength, pH, buffer, etc. ([Smith et al., 1978]). Thus, to quantitatively determine if racemization would impact our experiments using the enantiomers, we performed a functional assessment of this property in our standard experimental solution. […] Both enantiomers of EU1794-4 inhibited NMDAR responses, but with different potencies (Figure 8—figure supplement 1C, Supplementary File 2). […] All enantiomer studies, other than the racemization time-course, were performed rapidly to minimize any racemization, being completed in less than 80 min after making the aqueous solution of modulator.
Figure 8. The enantiomers of EU1794-4 and EU1794-27 have different action. […] (C) Single concentration competition experiments illustrating an interaction between both enantiomers of EU1794-4 (+and -) and the positive modulating enantiomer of EU1794-27 (-) at GluN1/GluN2D. […] Figure 8—figure supplement 1. […]

diheteromeric NMDARs = assay: Two-electrode voltage-clamp recordings, statements across all diheteromeric NMDARs; type: cell-based, rat
Protocol: as §1
Xenopus laevis stage VI oocytes (Ecocyte Biosciences, Austin, TX) were injected as previously described ([Hansen et al., 2013]) 2–7 days prior to recording with cRNA encoding the NMDAR subunits and stored at 15°C in media containing (in mM) 88 NaCl, 2.4 NaHCO3, 1 KCl, 0.33 Ca(NO3)2, 0.41 CaCl2, 0.82 MgSO4, 5 Tris-HCl; pH was adjusted to 7.4 with NaOH and the solution supplemented with 1 U/mL penicillin, 0.1 mg/mL gentamicin sulfate, and 1 μg/mL streptomycin. Two-electrode voltage-clamp recordings were performed at room temperature (21–23°C) using different internal solutions for voltage and current electrodes (0.3 M and 3.0 M KCl, respectively). All extracellular solutions were made from a solution containing (in mM) 90 NaCl, 1 KCl, 10 HEPES, 0.5 BaCl2, 0.01 EDTA (pH 7.4 with NaOH). Experiments were performed using an eight port Modular Valve Positioner (Hamilton Company, Reno, NV) and controlled by custom software (Easy Oocyte, Emory University, Atlanta, GA)to exchange solutions. Oocyte currents were recorded at a holding potential of −40 mV using a two-electrode voltage-clamp amplifier (OC-725B or OC-725C, Warner Instruments, Hamden, CT). […]

[2] = glutamate/glycine 100/30 µM, no second modulator (+EU1794-27 0 µM), read-out: IC50 (µM) [conf. int.]
[3] = saturating glutamate/glycine 100/30 µM, mean [95% CI], read-out: EC50 (µM) [conf. int.]
[4] = saturating glutamate/glycine 100/30 µM, mean ± SEM
[5] = Glu/Gly 1/0.3 µM (sub-saturating)
[6] = sub-saturating glutamate/glycine 1/0.3 µM, read-out: EC50 (µM) [conf. int.]
[7] = sub-saturating glutamate/glycine 1/0.3 µM

Chain of GluN1/GluN2C NMDARs (Q00961 20-1237, other chains not shown): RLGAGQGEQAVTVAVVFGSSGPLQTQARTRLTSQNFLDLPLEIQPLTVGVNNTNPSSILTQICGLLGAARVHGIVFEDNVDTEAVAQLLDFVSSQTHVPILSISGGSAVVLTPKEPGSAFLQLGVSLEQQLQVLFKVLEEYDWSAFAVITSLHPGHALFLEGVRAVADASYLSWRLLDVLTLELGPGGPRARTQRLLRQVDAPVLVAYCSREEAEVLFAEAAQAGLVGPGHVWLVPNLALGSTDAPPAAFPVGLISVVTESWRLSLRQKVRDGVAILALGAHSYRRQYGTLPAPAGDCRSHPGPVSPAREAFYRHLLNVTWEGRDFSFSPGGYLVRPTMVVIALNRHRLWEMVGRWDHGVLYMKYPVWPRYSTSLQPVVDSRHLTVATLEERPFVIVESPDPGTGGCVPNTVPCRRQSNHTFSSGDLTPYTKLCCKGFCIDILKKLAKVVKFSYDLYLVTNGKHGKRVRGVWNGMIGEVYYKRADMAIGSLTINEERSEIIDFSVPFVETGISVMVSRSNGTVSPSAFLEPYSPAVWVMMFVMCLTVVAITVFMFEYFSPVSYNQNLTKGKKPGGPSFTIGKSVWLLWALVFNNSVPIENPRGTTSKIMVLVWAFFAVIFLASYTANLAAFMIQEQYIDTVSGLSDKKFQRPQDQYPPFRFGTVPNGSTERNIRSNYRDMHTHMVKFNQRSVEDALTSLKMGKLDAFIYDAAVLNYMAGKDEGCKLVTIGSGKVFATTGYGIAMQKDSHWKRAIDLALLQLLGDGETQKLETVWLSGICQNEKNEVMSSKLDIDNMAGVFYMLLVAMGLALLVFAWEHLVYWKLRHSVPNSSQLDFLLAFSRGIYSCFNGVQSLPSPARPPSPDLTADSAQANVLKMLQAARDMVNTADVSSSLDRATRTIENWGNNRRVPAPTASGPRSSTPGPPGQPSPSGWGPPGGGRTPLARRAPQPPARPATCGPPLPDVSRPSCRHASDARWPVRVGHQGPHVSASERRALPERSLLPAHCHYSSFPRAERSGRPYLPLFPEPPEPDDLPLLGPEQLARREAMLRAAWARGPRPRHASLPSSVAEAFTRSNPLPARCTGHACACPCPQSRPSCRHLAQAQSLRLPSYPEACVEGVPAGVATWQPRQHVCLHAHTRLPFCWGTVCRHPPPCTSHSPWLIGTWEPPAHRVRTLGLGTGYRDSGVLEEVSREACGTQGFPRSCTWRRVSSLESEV

Modulation by 10 µM (% of control) (GluN1/GluN2C NMDARs; Glu/Gly 100/30 µM)	IC50 (GluN1/GluN2C NMDARs; [2])	EC50 (GluN1/GluN2C NMDARs; [3])	Emax (GluN1/GluN2C NMDARs; [4])	half-life at 10 µM [1]	Modulation by 10 µM (% of control) (GluN1/GluN2C NMDARs; [5])	EC50 (GluN1/GluN2C NMDARs; [6])	Emax (GluN1/GluN2C NMDARs; [7])	SMILES	other results
16 ± 1.0 % of control	0.21 µM	0.26 µM	14%					CCOC(=O)c1c(NC(=O)CC2SC(=N)NC2=O)sc2c1CCC(C)C2 (stereo not drawn) [EU1794-2, ethyl 2-(2-(2-imino-4-oxothiazolidin-5-yl)acetamido)-6-methyl-4,5,6,7-tetrahydrobenzo[b]thiophene-3-carboxylate]	Modulation by 10 µM (% of control) (GluN1/GluN2C NMDARs; Glu/Gly 0.6/0.2 µM (sub-saturating)): 43 ± 2.1 % of control; IC50 (GluN1/GluN2C NMDARs; +EU1794-27 3 µM, glutamate/glycine 100/30 µM, read-out: EU1794-2 IC50 (µM) [conf. int.]): 1.2 µM; IC50 (GluN1/GluN2C NMDARs; +EU1794-27 10 µM, glutamate/glycine 100/30 µM, read-out: EU1794-2 IC50 (µM) [conf. int.]): 2.4 µM; IC50 (GluN1/GluN2C NMDARs; +EU1794-27 20 µM, glutamate/glycine 100/30 µM, read-out: EU1794-2 IC50 (µM) [conf. int.]): 6 µM; EC50 (GluN1/GluN2C NMDARs; sub-saturating glutamate/glycine 0.6/0.2 µM, read-out: EC50 (µM) [conf. int.]): 0.72 µM; Emax (GluN1/GluN2C NMDARs; sub-saturating glutamate/glycine 0.6/0.2 µM): 41%
54 ± 1.6 % of control	0.42 µM	0.42 µM	52%	3.27 h	140 ± 12 % of control	15 µM	220%	CCOC(=O)c1c(NC(=O)CC2SC(=N)NC2=O)sc2c1CCCC2 (stereo not drawn) [EU1794-4, ethyl 2-(2-(2-imino-4-oxothiazolidin-5-yl)acetamido)-4,5,6,7-tetrahydrobenzo[b]thiophene-3-carboxylate]	potency of (-) enantiomer relative to (+) enantiomer (diheteromeric NMDARs; inhibition, across subtypes): 3–10 fold; residual current at saturating levels (diheteromeric NMDARs; saturating EU1794-4): 30–60%; saturated inhibition (diheteromeric NMDARs; saturating modulator and agonist, across NMDAR subtypes): 40–70 % of control; melting point: 163 °C (dec.); Modulation by 10 µM (% of control) (GluN1/GluN2C NMDARs; Glu/Gly 0.3/0.09 µM (sub-saturating)): 660 ± 110 % of control; Fold Difference (glutamate EC50) (GluN1/GluN2C NMDARs; control vs 10 µM EU1794-4): 3.2^†; Fold Difference (glycine EC50) (GluN1/GluN2C NMDARs; control vs 10 µM EU1794-4): 4.6^†
190 ± 10 % of control		2.8 µM	230%	3.28 h	480 ± 31 % of control	5 µM	680%	CC(C)(C)OC(=O)c1c(NC(=O)CC2SC(=N)NC2=O)sc2c1CCCC2 (stereo not drawn) [EU1794-27, tert-butyl 2-(2-(2-imino-4-oxothiazolidin-5-yl)acetamido)-4,5,6,7-tetrahydrobenzo[b]thiophene-3-carboxylate]	EC50 (GluN1/GluN2C NMDARs; +EU1794-2 1 µM, glutamate/glycine 100/30 µM, read-out: EU1794-27 EC50 (µM) [conf. int.]): 7.3 µM; EC50 (GluN1/GluN2C NMDARs; +EU1794-2 3 µM, glutamate/glycine 100/30 µM, read-out: EU1794-27 EC50 (µM) [conf. int.]): 7.3 µM; Fold Difference (glutamate EC50) (GluN1/GluN2C NMDARs; control vs 10 µM EU1794-27): 3.3^†; Fold Difference (glycine EC50) (GluN1/GluN2C NMDARs; control vs 10 µM EU1794-27): 2.4
